According to patent US10479786B2, “Protein kinase inhibitors” (Princeton Drug Discovery Inc, priority 2016, dated 2019):

Legend:
ACK = molecular target: T1, ACK (Homo sapiens, UniProt Q07912); experiment: Off-chip Mobility Shift Assay, kinase inhibition; type: biochemical; conditions: recombinant ACK; for inhibition at 0.01 µM: at 10 nM
T1 construct: purchased Carna Biosciences, Inc

FMS = molecular target: T2, FMS (Homo sapiens, UniProt P07333); experiment: Off-chip Mobility Shift Assay, kinase inhibition; type: biochemical; conditions: recombinant FMS; for inhibition at 0.001 µM: at 1 nM; for inhibition at 0.01 µM: at 10 nM
T2 construct: purchased Carna Biosciences, Inc

LCK = molecular target: T3, LCK (Homo sapiens, UniProt P06239); experiment: Off-chip Mobility Shift Assay, kinase inhibition; type: biochemical; conditions: recombinant LCK; for inhibition at 0.001 µM: at 1 nM; for inhibition at 0.01 µM: at 10 nM
T3 construct: purchased Carna Biosciences, Inc

ARG = molecular target: T4, ARG (Homo sapiens, UniProt P42684); experiment: Off-chip Mobility Shift Assay, kinase inhibition; type: biochemical; conditions: recombinant ARG; for inhibition at 0.01 µM: at 10 nM, read-out: inhibition
T4 construct: purchased Carna Biosciences, Inc

FYN(isoform a) = molecular target: T5, FYN(isoform a) (Homo sapiens, UniProt P06241); experiment: Off-chip Mobility Shift Assay, kinase inhibition; type: biochemical; conditions: recombinant FYN(isoform a); for inhibition at 0.001 µM: at 1 nM; for inhibition at 0.01 µM: at 10 nM
T5 construct: purchased Carna Biosciences, Inc

DDR2 = molecular target: T6, DDR2 (Homo sapiens, UniProt Q16832); experiment: Off-chip Mobility Shift Assay, kinase inhibition; type: biochemical; conditions: recombinant DDR2; for inhibition at 0.01 µM: at 10 nM, read-out: inhibition
T6 construct: purchased Carna Biosciences, Inc
T6 sequence (Q16832 22-855): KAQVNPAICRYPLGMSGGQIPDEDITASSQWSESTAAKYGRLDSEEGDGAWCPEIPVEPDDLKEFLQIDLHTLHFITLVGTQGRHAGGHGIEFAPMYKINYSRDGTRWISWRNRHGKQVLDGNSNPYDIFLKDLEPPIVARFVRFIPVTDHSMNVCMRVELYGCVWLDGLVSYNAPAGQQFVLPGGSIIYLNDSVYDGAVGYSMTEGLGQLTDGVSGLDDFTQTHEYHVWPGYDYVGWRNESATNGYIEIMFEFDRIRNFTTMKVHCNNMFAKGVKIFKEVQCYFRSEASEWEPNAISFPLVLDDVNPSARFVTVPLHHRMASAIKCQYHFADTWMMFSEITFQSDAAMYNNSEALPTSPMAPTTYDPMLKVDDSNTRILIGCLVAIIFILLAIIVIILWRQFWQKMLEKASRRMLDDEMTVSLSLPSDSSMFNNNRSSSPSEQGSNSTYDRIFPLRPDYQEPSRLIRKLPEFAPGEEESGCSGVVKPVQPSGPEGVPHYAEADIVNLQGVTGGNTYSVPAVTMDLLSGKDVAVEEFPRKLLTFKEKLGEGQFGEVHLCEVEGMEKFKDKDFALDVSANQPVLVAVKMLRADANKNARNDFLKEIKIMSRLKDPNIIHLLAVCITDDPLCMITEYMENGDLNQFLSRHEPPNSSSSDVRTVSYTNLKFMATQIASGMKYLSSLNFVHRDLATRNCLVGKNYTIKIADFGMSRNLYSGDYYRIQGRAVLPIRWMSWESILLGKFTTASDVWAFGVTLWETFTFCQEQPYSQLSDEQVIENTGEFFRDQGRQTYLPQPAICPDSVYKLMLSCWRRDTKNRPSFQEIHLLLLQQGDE

BLK = molecular target: T7, BLK (Homo sapiens, UniProt P51451); experiment: Off-chip Mobility Shift Assay, kinase inhibition; type: biochemical; conditions: recombinant BLK; for inhibition at 0.001 µM: at 1 nM; for inhibition at 0.01 µM: at 10 nM
T7 construct: purchased Carna Biosciences, Inc

BTK = molecular target: T8, BTK (Homo sapiens, UniProt Q06187); experiment: Off-chip Mobility Shift Assay, kinase inhibition; type: biochemical; conditions: recombinant BTK; for inhibition at 0.001 µM: at 1 nM; for inhibition at 0.01 µM: at 10 nM
T8 construct: purchased Carna Biosciences, Inc

ABL = molecular target: T9, ABL (Homo sapiens, UniProt P00519); experiment: Off-chip Mobility Shift Assay, kinase inhibition; type: biochemical; conditions: recombinant ABL; for inhibition at 0.001 µM: at 1 nM; for inhibition at 0.01 µM: at 10 nM
T9 construct: purchased Carna Biosciences, Inc

HCK = molecular target: T10, HCK (Homo sapiens, UniProt P08631); experiment: Off-chip Mobility Shift Assay, kinase inhibition; type: biochemical; conditions: recombinant HCK; for inhibition at 0.001 µM: at 1 nM; for inhibition at 0.01 µM: at 10 nM, read-out: inhibition
T10 construct: purchased Carna Biosciences, Inc

PDGFRβ = molecular target: T11, PDGFRβ (Homo sapiens, UniProt P09619); experiment: Off-chip Mobility Shift Assay, kinase inhibition; type: biochemical; conditions: recombinant PDGFRβ; for inhibition at 0.001 µM: at 1 nM; for inhibition at 0.01 µM: at 10 nM, read-out: inhibition
T11 construct: purchased Carna Biosciences, Inc

LYNa = molecular target: T12, LYNa (Homo sapiens, UniProt P07948); experiment: Off-chip Mobility Shift Assay, kinase inhibition; type: biochemical; conditions: recombinant LYNa; for inhibition at 0.001 µM: at 1 nM; for inhibition at 0.01 µM: at 10 nM, read-out: inhibition
T12 construct: purchased Carna Biosciences, Inc

Mino = experiment: Cell inhibition assay (PrestoBlue, 48 h); type: cell-based; conditions: Homo sapiens, Mino cells, read-out: IC50, inhibition of growth
BMX = molecular target: T13, BMX (Homo sapiens, UniProt P51813); experiment: Off-chip Mobility Shift Assay, kinase inhibition; type: biochemical; conditions: recombinant BMX; for inhibition at 0.001 µM: at 1 nM; for inhibition at 0.01 µM: at 10 nM
T13 construct: purchased Carna Biosciences, Inc
T13 sequence (P51813 1-675): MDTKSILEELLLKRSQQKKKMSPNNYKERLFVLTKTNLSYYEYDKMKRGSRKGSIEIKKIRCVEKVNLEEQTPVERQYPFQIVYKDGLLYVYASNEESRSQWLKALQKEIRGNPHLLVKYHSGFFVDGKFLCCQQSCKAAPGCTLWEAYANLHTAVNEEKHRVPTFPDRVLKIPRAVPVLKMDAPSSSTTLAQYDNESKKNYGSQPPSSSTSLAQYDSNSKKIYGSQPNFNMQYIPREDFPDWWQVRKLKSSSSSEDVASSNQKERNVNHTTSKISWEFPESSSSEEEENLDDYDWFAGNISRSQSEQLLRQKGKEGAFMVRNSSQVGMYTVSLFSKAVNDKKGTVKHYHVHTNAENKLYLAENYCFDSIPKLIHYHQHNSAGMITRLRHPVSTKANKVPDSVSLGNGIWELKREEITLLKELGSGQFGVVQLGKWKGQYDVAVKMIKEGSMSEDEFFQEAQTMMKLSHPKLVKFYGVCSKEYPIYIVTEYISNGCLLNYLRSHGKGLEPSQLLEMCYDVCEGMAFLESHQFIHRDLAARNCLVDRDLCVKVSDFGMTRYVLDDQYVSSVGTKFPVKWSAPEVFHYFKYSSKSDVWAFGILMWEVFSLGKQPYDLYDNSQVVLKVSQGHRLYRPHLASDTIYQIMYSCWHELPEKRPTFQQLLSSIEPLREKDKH

[1] = test system: battery of selected protein kinases; experiment: In vitro screen of a battery of selected protein kinases (summary statement); type: biochemical; conditions: BTK, BMX, ABL, ABL(E255K), SRC, ACK, ARG, BLK, DDR2, EPHA, FGR, FMS, FRK, FYN, HCK, LCK, LYN, PDGFRα, PDGFRβ, YES, PIK3CA/PIK3R1, among others
SRC = molecular target: T14, SRC (Homo sapiens, UniProt P12931); experiment: Off-chip Mobility Shift Assay, kinase inhibition; type: biochemical; conditions: recombinant SRC; for inhibition at 0.001 µM: at 1 nM; for inhibition at 0.01 µM: at 10 nM
T14 construct: purchased Carna Biosciences, Inc

PDGFRα = molecular target: T15, PDGFRα (Homo sapiens, UniProt P16234); experiment: Off-chip Mobility Shift Assay, kinase inhibition; type: biochemical; conditions: recombinant PDGFRα; for inhibition at 0.001 µM: at 1 nM; for inhibition at 0.01 µM: at 10 nM, read-out: inhibition
T15 construct: purchased Carna Biosciences, Inc
T15 sequence (P16234 24-1089): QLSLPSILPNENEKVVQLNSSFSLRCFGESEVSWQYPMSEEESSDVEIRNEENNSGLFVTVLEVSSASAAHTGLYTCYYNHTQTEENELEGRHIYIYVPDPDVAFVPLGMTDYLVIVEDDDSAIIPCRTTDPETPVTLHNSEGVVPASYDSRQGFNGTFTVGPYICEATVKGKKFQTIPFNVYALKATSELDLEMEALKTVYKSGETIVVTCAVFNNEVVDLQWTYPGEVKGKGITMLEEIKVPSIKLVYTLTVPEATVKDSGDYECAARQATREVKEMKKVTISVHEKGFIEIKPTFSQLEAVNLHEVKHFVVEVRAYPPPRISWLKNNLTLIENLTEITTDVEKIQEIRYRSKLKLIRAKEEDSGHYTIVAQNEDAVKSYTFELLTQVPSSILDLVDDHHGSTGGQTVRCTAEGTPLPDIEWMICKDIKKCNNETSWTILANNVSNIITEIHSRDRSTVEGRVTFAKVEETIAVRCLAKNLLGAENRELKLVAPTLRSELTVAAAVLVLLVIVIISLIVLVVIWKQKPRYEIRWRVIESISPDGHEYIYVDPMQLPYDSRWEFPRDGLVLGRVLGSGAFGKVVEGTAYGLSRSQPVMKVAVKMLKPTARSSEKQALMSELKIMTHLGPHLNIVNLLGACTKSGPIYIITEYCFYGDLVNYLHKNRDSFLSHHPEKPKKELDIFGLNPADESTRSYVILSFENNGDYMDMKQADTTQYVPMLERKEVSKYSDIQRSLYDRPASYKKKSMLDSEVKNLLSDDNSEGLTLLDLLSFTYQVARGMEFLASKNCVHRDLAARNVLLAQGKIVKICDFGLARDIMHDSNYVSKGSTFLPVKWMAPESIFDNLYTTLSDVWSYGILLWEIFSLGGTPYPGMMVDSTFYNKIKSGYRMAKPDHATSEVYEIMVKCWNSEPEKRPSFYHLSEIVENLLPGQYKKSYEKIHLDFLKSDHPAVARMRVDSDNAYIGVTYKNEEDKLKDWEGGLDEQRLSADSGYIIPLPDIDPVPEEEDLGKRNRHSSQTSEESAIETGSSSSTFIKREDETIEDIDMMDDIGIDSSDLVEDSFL

T11 sequence (P09619 33-1106): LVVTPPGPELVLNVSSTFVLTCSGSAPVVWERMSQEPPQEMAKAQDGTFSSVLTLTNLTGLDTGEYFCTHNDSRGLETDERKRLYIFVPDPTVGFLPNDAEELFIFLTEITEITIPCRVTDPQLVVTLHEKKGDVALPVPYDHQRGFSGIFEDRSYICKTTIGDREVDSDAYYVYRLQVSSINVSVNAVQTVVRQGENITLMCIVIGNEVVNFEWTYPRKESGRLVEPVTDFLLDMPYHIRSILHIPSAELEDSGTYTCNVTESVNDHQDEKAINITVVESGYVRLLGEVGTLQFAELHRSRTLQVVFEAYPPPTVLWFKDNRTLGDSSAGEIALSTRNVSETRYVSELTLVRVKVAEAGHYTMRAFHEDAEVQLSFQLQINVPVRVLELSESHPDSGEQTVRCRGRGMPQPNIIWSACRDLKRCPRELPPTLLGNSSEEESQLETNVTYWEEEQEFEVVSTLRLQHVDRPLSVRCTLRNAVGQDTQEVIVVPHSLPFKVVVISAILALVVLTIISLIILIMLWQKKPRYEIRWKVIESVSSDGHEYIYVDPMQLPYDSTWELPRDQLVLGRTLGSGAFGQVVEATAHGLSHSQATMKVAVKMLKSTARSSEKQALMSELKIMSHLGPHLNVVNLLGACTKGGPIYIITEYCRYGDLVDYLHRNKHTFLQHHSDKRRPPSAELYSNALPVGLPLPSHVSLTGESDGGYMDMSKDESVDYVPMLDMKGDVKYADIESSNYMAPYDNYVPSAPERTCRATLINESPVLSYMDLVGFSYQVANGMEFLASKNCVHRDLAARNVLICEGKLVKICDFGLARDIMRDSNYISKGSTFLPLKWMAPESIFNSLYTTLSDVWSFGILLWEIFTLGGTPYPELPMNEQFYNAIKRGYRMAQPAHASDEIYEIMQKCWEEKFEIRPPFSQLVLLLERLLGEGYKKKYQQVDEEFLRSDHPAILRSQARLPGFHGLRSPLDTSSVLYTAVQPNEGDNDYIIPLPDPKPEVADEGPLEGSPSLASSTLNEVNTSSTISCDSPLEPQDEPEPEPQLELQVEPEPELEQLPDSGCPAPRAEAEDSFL
T1 sequence (Q07912 whole entry): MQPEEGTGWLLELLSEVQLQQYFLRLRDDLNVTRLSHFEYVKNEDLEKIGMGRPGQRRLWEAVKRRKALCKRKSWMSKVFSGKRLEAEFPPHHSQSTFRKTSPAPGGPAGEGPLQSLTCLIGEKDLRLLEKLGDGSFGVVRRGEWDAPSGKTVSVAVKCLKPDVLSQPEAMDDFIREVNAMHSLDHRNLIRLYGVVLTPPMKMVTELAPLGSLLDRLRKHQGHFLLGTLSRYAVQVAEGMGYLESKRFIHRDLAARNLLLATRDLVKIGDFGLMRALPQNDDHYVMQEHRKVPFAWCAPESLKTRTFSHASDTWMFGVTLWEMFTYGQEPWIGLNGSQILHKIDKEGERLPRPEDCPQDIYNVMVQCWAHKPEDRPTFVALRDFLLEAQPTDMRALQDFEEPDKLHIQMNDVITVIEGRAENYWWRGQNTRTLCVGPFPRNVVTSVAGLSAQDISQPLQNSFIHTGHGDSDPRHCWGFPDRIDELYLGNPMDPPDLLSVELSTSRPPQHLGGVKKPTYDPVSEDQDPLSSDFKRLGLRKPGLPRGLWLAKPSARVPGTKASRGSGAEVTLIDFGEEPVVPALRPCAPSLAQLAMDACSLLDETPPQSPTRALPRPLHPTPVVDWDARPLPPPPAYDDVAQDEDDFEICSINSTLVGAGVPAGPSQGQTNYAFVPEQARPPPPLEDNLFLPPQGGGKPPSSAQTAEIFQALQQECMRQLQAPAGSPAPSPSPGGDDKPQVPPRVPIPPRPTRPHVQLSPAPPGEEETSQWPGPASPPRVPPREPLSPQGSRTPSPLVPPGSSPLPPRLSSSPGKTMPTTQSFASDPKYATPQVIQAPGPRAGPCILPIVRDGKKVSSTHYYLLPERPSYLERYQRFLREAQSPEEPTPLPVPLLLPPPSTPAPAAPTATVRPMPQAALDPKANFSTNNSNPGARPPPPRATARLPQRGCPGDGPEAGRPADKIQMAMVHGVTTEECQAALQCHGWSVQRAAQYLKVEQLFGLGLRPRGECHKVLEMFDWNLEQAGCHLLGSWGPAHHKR
T9 sequence (P00519 whole entry): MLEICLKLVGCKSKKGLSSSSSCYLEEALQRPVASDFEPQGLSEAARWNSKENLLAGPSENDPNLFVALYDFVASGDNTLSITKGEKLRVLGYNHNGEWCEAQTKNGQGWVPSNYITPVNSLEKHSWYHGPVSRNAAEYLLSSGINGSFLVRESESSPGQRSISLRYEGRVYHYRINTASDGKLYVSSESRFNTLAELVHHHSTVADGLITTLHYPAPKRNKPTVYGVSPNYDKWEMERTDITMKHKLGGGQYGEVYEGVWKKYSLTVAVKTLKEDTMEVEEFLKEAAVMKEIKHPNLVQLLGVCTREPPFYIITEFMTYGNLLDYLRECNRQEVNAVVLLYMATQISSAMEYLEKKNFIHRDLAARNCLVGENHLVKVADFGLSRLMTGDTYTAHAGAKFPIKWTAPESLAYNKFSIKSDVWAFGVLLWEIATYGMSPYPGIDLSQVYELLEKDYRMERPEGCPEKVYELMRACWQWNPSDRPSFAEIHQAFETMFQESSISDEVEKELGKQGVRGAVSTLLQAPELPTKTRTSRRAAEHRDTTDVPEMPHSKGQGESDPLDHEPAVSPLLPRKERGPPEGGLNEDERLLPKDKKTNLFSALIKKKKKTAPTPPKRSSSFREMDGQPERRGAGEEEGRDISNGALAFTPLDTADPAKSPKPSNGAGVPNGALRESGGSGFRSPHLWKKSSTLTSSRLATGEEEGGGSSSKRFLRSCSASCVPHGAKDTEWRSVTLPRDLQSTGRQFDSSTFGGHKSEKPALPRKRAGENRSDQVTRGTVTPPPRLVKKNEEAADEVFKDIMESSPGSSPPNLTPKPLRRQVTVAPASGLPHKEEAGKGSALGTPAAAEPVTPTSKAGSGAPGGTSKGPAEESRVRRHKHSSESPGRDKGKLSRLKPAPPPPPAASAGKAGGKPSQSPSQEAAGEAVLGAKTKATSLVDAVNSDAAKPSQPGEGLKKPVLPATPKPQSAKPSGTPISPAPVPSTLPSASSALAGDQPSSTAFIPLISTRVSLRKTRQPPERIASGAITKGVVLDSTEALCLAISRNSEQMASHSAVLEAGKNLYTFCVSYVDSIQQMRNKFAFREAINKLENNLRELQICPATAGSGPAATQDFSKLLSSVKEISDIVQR
T5 sequence (P06241 whole entry, canonical isoform): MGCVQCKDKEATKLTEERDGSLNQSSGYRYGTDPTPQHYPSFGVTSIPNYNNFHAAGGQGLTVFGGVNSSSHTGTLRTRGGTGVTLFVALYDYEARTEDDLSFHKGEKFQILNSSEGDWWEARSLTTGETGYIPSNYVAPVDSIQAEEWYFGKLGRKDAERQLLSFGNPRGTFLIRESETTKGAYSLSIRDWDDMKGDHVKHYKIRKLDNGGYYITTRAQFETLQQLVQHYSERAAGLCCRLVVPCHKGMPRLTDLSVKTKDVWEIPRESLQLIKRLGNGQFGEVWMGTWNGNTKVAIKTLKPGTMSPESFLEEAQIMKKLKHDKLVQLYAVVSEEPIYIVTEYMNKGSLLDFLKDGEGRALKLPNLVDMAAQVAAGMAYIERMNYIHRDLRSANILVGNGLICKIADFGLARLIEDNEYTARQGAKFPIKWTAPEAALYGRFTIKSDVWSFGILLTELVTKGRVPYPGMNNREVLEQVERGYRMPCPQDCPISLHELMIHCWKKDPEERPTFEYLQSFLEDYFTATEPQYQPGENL

| Compound | inhibition at 0.01 µM (ACK) [%] | inhibition at 0.01 µM (FMS) [%] | inhibition at 0.001 µM (LCK) [%] | inhibition at 0.01 µM (LCK) [%] | inhibition at 0.01 µM (ARG) [%] | inhibition at 0.01 µM (FYN(isoform a)) [%] | inhibition at 0.01 µM (DDR2) [%] | inhibition at 0.01 µM (BLK) [%] | inhibition at 0.001 µM (BTK) [%] | inhibition at 0.01 µM (BTK) [%] | inhibition at 0.001 µM (ABL) [%] | inhibition at 0.01 µM (ABL) [%] | inhibition at 0.001 µM (HCK) [%] | inhibition at 0.01 µM (HCK) [%] | inhibition at 0.01 µM (PDGFRβ) [%] | inhibition at 0.001 µM (LYNa) [%] | inhibition at 0.01 µM (LYNa) [%] | IC50 (Mino) [nM] | inhibition at 0.001 µM (BMX) [%] | inhibition at 0.01 µM (BMX) [%] | also measured |
| --- | --- | --- | --- | --- | --- | --- | --- | --- | --- | --- | --- | --- | --- | --- | --- | --- | --- | --- | --- | --- | --- |
| [2H]c1cc(C)c(NC(=O)c2cnc(Nc3cc(N4CCCCC4)nc(C)n3)s2)c(Cl)c1 [Compound I, N-(2-chloro-4-deuterio-6-methyl-phenyl)-2-[[2-methyl-6-(1-piperidyl)pyrimidin-4-yl]amino]thiazole-5-carboxamide] | > 50 | > 50 | > 50 | > 50 | > 50 | > 50 | > 50 | > 50 | > 50 | > 50 | > 50 | > 50 | > 50 | > 50 | > 50 | > 50 | > 50 | < 50 | > 50 | > 50 | inhibition at 0.001 µM (ACK; at 1 nM): > 50%; inhibition at 0.001 µM (FMS): > 50%; inhibition at 0.001 µM (ARG; at 1 nM): > 50%; inhibition at 0.001 µM (FYN(isoform a)): > 50%; inhibition at 0.001 µM (DDR2; at 1 nM): > 50%; inhibition at 0.001 µM (BLK): > 50%; inhibition at 0.001 µM (PDGFRβ): > 50%; activity to inhibit kinases [1]: potent activity; inhibition at 0.001 µM (SRC): > 50%; inhibition at 0.01 µM (SRC): > 50%; inhibition at 0.001 µM (PDGFRα): > 50%; inhibition at 0.01 µM (PDGFRα): > 50% |
| [2H]c1cc(C)c(NC(=O)c2cnc(Nc3cc(N4CCC(O)CC4)nc(C)n3)s2)c(Cl)c1 [Compound II, N-(2-chloro-4-deuterio-6-methyl-phenyl)-2-[[6-(4-hydroxy-1-piperidyl)-2-methyl-pyrimidin-4-yl]amino]thiazole-5-carboxamide] | > 50 | > 50 | > 50 | > 50 | > 50 | > 50 | > 50 | > 50 | > 50 | > 50 | > 50 | > 50 | > 50 | > 50 | > 50 | > 50 | > 50 | < 50 | > 50 | > 50 | inhibition at 0.001 µM (FMS): > 50%; inhibition at 0.001 µM (FYN(isoform a)): > 50%; inhibition at 0.001 µM (BLK): > 50%; inhibition at 0.001 µM (PDGFRβ): < 50%; inhibition at 0.1 µM (PDGFRβ; at 100 nM): > 50%; activity to inhibit kinases [1]: potent activity; inhibition at 0.001 µM (SRC): > 50%; inhibition at 0.01 µM (SRC): > 50%; inhibition at 0.001 µM (PDGFRα): < 50%; inhibition at 0.01 µM (PDGFRα): > 50%; inhibition at 0.1 µM (PDGFRα; at 100 nM): > 50% |
| [2H]c1cc(C)c(NC(=O)c2cnc(Nc3cc(N4CC[C@H](O)C4)nc(C)n3)s2)c(Cl)c1 [Compound IV, N-(2-chloro-4-deutero-6-methylphenyl)-2-[[2-methyl-6-((S)-3-hydroxypyrrolidin-1-yl)pyrimidin-4-yl]amino]thiazole-5-carboxamide] | > 50 | > 50 | > 50 | > 50 | > 50 | > 50 | > 50 | > 50 | > 50 | > 50 | > 50 | > 50 | > 50 | > 50 | > 50 | > 50 | > 50 | < 50 | > 50 | > 50 | activity to inhibit kinases [1]: potent activity; inhibition at 0.001 µM (SRC): > 50%; inhibition at 0.01 µM (SRC): > 50%; inhibition at 0.01 µM (PDGFRα): > 50% |
| Cc1nc(Nc2ncc(C(=O)Nc3c(C)cccc3Cl)s2)cc(N2CCC(O)CC2)n1 [Compound IX, N-(2-chloro-6-methylphenyl)-2-[[2-methyl-6-(4-hydroxypiperidin-1-yl)pyrimidin-4-yl]amino]thiazole-5-carboxamide] | > 50 | > 50 | > 50 | > 50 | > 50 | > 50 | > 50 | > 50 | > 50 | > 50 | > 50 | > 50 | > 50 | > 50 | > 50 | > 50 | > 50 | < 50 | > 50 | > 50 | activity to inhibit kinases [1]: potent activity; inhibition at 0.001 µM (SRC): > 50%; inhibition at 0.01 µM (SRC): > 50%; inhibition at 0.01 µM (PDGFRα): > 50% |
